According to ChEMBL document CHEMBL1201862, “PubChem BioAssay data set” (2004):
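Compound exposure: 48 hours, 5 concentrations, 96-well plates. Here, GI50 denotes the concentration required for 50% inhibition of growth.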 Calls of active or inactive are those of the source. Rule as the data show it: active = GI50 up to about 1.1 µM and inactive = higher.

How the values were obtained:
Test in all cases: growth of human tumour cells (NCI), 48 h
A498 = system: A498
NCI/ADR-RES = system: NCI/ADR-RES
M14 = system: M14
SW-620 = system: SW-620
U-251 = system: U-251
CCRF-CEM = system: CCRF-CEM
SK-MEL-28 = system: SK-MEL-28
MCF7 = system: MCF7
HOP-92 = system: HOP-92
SK-MEL-2 = system: SK-MEL-2
MDA-MB-435 = system: MDA-MB-435
T47D = system: T47D
Hs-578T = system: Hs-578T
BT-549 = system: BT-549
786-0 = system: 786-0
SK-OV-3 = system: SK-OV-3
PC-3 = system: PC-3
DU-145 = system: DU-145
RXF 393 = system: RXF 393
Malme-3M = system: Malme-3M

Row | Compound | GI50 (A498) | GI50 (NCI/ADR-RES) | GI50 (M14) | GI50 (SW-620) | GI50 (U-251) | GI50 (CCRF-CEM) | GI50 (SK-MEL-28) | GI50 (MCF7) | GI50 (HOP-92) | GI50 (SK-MEL-2) | GI50 (MDA-MB-435) | GI50 (T47D) | GI50 (Hs-578T) | GI50 (BT-549) | GI50 (786-0) | GI50 (SK-OV-3) | GI50 (PC-3) | GI50 (DU-145) | GI50 (RXF 393) | GI50 (Malme-3M)
1 | N#Cc1ccc(-n2c3ccccc3c3ccc4c(c32)C(=O)C=CC4=O)cc1 | 1.85 µM (inactive) | 10.9 µM (inactive) | 2.68 µM (inactive) | 1.92 µM (inactive) | 4.56 µM (inactive) | 0.409 µM (active) | 2.88 µM (inactive) | 2.52 µM (inactive) | 1.52 µM (inactive) | 8.87 µM (inactive) | 2.01 µM (inactive) | 2.74 µM (inactive) | 4.16 µM (inactive) | 12.2 µM (inactive) | 1.56 µM (inactive) | 13.8 µM (inactive) | 3.06 µM (inactive) | 3.6 µM (inactive) | 2.39 µM (inactive) | –
2 | c1ccc(COCC23CCN(Cc4ccccc4)C(CC(OCc4ccccc4)C2)S3)cc1 (configuration not stated) | 39.3 µM (inactive) | 83 µM (inactive) | 39.3 µM (inactive) | > 100 µM (inactive) | 44.8 µM (inactive) | 56.8 µM (inactive) | > 100 µM (inactive) | 14.8 µM (inactive) | 20.3 µM (inactive) | 37.2 µM (inactive) | 46 µM (inactive) | 26.4 µM (inactive) | 86.3 µM (inactive) | 42.6 µM (inactive) | > 100 µM (inactive) | > 100 µM (inactive) | 31.8 µM (inactive) | > 100 µM (inactive) | > 100 µM (inactive) | 29.7 µM (inactive)
3 | CC(CN(C)C)C(=O)c1ccccc1C(=O)O (configuration not stated) | 40.8 µM (inactive) | 29.1 µM (inactive) | 26.4 µM (inactive) | 29.3 µM (inactive) | 16.1 µM (inactive) | 10.1 µM (inactive) | 31.2 µM (inactive) | 35.6 µM (inactive) | 41.9 µM (inactive) | 15.7 µM (inactive) | 20.1 µM (inactive) | 37.1 µM (inactive) | 11.1 µM (inactive) | 9.59 µM (inactive) | 24.2 µM (inactive) | 39.4 µM (inactive) | 23.9 µM (inactive) | 30.2 µM (inactive) | 39.4 µM (inactive) | 22 µM (inactive)
4 | CCOC1OC(CO[Si](C)(C)C(C)(C)C)C(O)CC1n1ccc(=O)[nH]c1=O (configuration not stated) | > 100 µM (inactive) | > 100 µM (inactive) | 26.8 µM (inactive) | 23.2 µM (inactive) | > 100 µM (inactive) | – | 61.4 µM (inactive) | 31.5 µM (inactive) | 85.7 µM (inactive) | > 100 µM (inactive) | > 100 µM (inactive) | 52 µM (inactive) | > 100 µM (inactive) | > 100 µM (inactive) | 78.3 µM (inactive) | – | 64.7 µM (inactive) | > 100 µM (inactive) | 30.8 µM (inactive) | > 100 µM (inactive)
5 | CCOC(=O)/C(=C\NCC(OCC)OCC)c1nc2ccccc2[nH]1 | 48.6 µM (inactive) | 2.02 µM (inactive) | 36.1 µM (inactive) | 41.4 µM (inactive) | 35.5 µM (inactive) | 33.3 µM (inactive) | 26.8 µM (inactive) | 30.1 µM (inactive) | 35.6 µM (inactive) | 22.3 µM (inactive) | 25 µM (inactive) | 21.6 µM (inactive) | 35.6 µM (inactive) | 22.4 µM (inactive) | 31.5 µM (inactive) | 75 µM (inactive) | 24 µM (inactive) | 43.7 µM (inactive) | 35.3 µM (inactive) | 25.8 µM (inactive)
6 | CCCCc1ccc(Nc2ncc3ncn(COCCO)c3n2)cc1 | 46.6 µM (inactive) | 29 µM (inactive) | 21.5 µM (inactive) | 47.9 µM (inactive) | 39.4 µM (inactive) | 20.8 µM (inactive) | – | 28.5 µM (inactive) | 25.8 µM (inactive) | 25.2 µM (inactive) | 29.4 µM (inactive) | 28.4 µM (inactive) | 20.8 µM (inactive) | 36.1 µM (inactive) | 26.6 µM (inactive) | 79.8 µM (inactive) | 27 µM (inactive) | 33.3 µM (inactive) | 26.8 µM (inactive) | 23.1 µM (inactive)
7 | CC(C)(C)c1cc(OCc2nnc3sc(-c4ccc(Cl)cc4)nn23)c(Cl)cc1OCc1nnc2sc(-c3ccc(Cl)cc3)nn12 | 8.73 µM (inactive) | 2.01 µM (inactive) | 3.06 µM (inactive) | 3.13 µM (inactive) | 5.79 µM (inactive) | – | 3.89 µM (inactive) | 3.17 µM (inactive) | 0.895 µM (active) | 7.91 µM (inactive) | 0.478 µM (active) | 1.97 µM (inactive) | 5.7 µM (inactive) | 4.7 µM (inactive) | 3.97 µM (inactive) | 4.06 µM (inactive) | 4.62 µM (inactive) | 4.19 µM (inactive) | 2.81 µM (inactive) | 2.93 µM (inactive)
8 | CCCCc1ccc(Nc2nc(N)c3[nH]cnc3n2)cc1 | 11.2 µM (inactive) | 15.2 µM (inactive) | 31.2 µM (inactive) | 30.3 µM (inactive) | 24.4 µM (inactive) | 21.7 µM (inactive) | 22.5 µM (inactive) | 18.4 µM (inactive) | 15.5 µM (inactive) | 22.4 µM (inactive) | 21.5 µM (inactive) | 35.1 µM (inactive) | 17.7 µM (inactive) | 21.5 µM (inactive) | 17.2 µM (inactive) | 20.8 µM (inactive) | 15 µM (inactive) | 19.2 µM (inactive) | – | 22.2 µM (inactive)
9 | Cc1cc2c(cc1C)C(=O)/C(=C/c1ccccc1C(=O)O)C2 | 31.8 µM (inactive) | 54.8 µM (inactive) | > 100 µM (inactive) | 46.8 µM (inactive) | 22.9 µM (inactive) | 30.9 µM (inactive) | 64.4 µM (inactive) | 50 µM (inactive) | 33.3 µM (inactive) | 35.4 µM (inactive) | 34.8 µM (inactive) | 47.8 µM (inactive) | 34 µM (inactive) | 25.6 µM (inactive) | 40.3 µM (inactive) | – | 33.9 µM (inactive) | > 100 µM (inactive) | > 100 µM (inactive) | 47.8 µM (inactive)
10 | COc1cc2c(cc1O)C1CC(CC3CCCCN31)OC(=O)/C=C\c1ccc(O)c-2c1 (configuration not stated) | 12.9 µM (inactive) | 23.8 µM (inactive) | 19.6 µM (inactive) | 51.2 µM (inactive) | 35 µM (inactive) | 30.1 µM (inactive) | 28.3 µM (inactive) | 13.9 µM (inactive) | 15.5 µM (inactive) | 26.5 µM (inactive) | 21.9 µM (inactive) | 18.5 µM (inactive) | 18.3 µM (inactive) | 27.9 µM (inactive) | 32.4 µM (inactive) | 31.2 µM (inactive) | 28.5 µM (inactive) | 27.7 µM (inactive) | – | 19.5 µM (inactive)
11 | Cn1c2ccccc2c(=NNc2ccc(S(=O)(=O)N=C(N)N)cc2)c2ccccc21 | – | 21.8 µM (inactive) | 16.3 µM (inactive) | 7.55 µM (inactive) | 8.02 µM (inactive) | 6.68 µM (inactive) | – | 3.14 µM (inactive) | 12.1 µM (inactive) | 13.5 µM (inactive) | 11 µM (inactive) | 6.35 µM (inactive) | 17.6 µM (inactive) | 9.42 µM (inactive) | 5.98 µM (inactive) | 8.93 µM (inactive) | 7.94 µM (inactive) | 11.2 µM (inactive) | 0.611 µM (active) | 8.26 µM (inactive)
12 | O=C(Cn1nnc(-c2ccccc2)n1)N/N=C/c1cn(Cc2ccc(Cl)cc2Cl)c2ccccc12 | 75.5 µM (inactive) | > 100 µM (inactive) | > 100 µM (inactive) | 58.3 µM (inactive) | > 100 µM (inactive) | 44.1 µM (inactive) | – | > 100 µM (inactive) | > 100 µM (inactive) | > 100 µM (inactive) | > 100 µM (inactive) | 47.2 µM (inactive) | > 100 µM (inactive) | > 100 µM (inactive) | 36.9 µM (inactive) | > 100 µM (inactive) | > 100 µM (inactive) | > 100 µM (inactive) | – | –
13 | O=C(c1ccccc1)c1c(C(F)(F)F)[n+]([O-])c2ccccc2[n+]1[O-] | 2.19 µM (inactive) | 0.469 µM (active) | 2.58 µM (inactive) | 1.48 µM (inactive) | 1.16 µM (inactive) | 0.495 µM (active) | 1.91 µM (inactive) | 0.652 µM (active) | 0.207 µM (active) | 1.5 µM (inactive) | 0.798 µM (active) | 0.396 µM (active) | 3.15 µM (inactive) | 0.476 µM (active) | 1.92 µM (inactive) | – | 0.29 µM (active) | 1.73 µM (inactive) | 1.46 µM (inactive) | 2 µM (inactive)
14 | COC12OC3(C4OC41)C(C(=O)O[C@H]3CO[Si](C)(C)C(C)(C)C)C2S(=O)(=O)c1ccccc1 (some centres not stated) | – | > 100 µM (inactive) | – | 1.52 µM (inactive) | > 4.65 µM (inactive) | 0.597 µM (active) | 3.48 µM (inactive) | 4.1 µM (inactive) | 3.27 µM (inactive) | > 4.65 µM (inactive) | > 4.65 µM (inactive) | > 83.9 µM (inactive) | 4.65 µM (inactive) | > 49.9 µM (inactive) | 2.89 µM (inactive) | > 4.65 µM (inactive) | > 4.65 µM (inactive) | > 4.65 µM (inactive) | < 0.01 µM (active) | > 41.8 µM (inactive)
15 | N#Cc1c(-c2cccc(Cl)c2)cc(-c2ccc(Cl)cc2)nc1N | – | 22 µM (inactive) | 19.1 µM (inactive) | 17.5 µM (inactive) | 16.6 µM (inactive) | 18.3 µM (inactive) | – | 16.3 µM (inactive) | 10.9 µM (inactive) | 18.1 µM (inactive) | 19.1 µM (inactive) | 27 µM (inactive) | 21.1 µM (inactive) | 18.6 µM (inactive) | 17 µM (inactive) | 18.3 µM (inactive) | 17.2 µM (inactive) | 32.9 µM (inactive) | 16.7 µM (inactive) | 28.1 µM (inactive)
